Measurements from patent US11840517B2, “Lappaconitine derivative with analgesic activity, and preparation and application thereof” (priority 2021, dated 2023).

System: Kunming mice
Assay: Analgesic activity by acetic acid-induced writhing method
Assay type: in vivo
Conditions: Mus musculus, sc; Dosing concentration 3.5 mg/kg, subcutaneous, 15 min before i.p. 0.7% acetic acid; writhing inhibition vs blank group; read-out: Analgesia rate ± SEM (%)
Experimental: The experimental animals were Kunming mice (male:female=1:1), weighed 22±2 g, which were provided by Chengdu dossy experimental animals Co., ltd., China. The mice were kept in the animal room of the School of Life Science and Engineering, Southwest Jiaotong University, where the animal room was set at a temperature of 23±2° C., a humidity of 55±5% and a photoperiod of 16:8 h (L:D). Before the experiment, the mice were freely fed for 2-3 days with water and feed to adapt to the new environment. Then, the mice were treated by water fasting for 12 h. 10 animals were allocated to each group to ensure that there are at least 6 sets of valid data in each group. The animal experiments were carried out in strict accordance with the national regulations on the management of experimental animals.
The compounds prepared in the examples provided herein and the positive control lappaconitine were all dissolved with 0.1 mol/L HCl according to the amount of the substance ratio of 1:1, and then diluted with physiological saline to a concentration to be determined. The samples to be tested were the compounds prepared the examples provided herein; the positive control was lappaconitine; and the blank control was physiological saline containing 0.1 mol/L HCl.
The animals in the control groups were subjected to the same treatment as those in the experimental group except that the samples to be test were replaced with physiological saline.
10 mice were randomly selected, male:female=1:1, were placed in independent cages. Each mouse was injected subcutaneously with the sample solution mentioned above at a dose of 0.1 mL/10 g body weight. After 15 min, a 0.7% acetic acid solution was intraperitoneally injected. The number of writhing reactions in each mouse within 15 minutes was recorded. The group that the mice were injected with physiological saline subcutaneously was the blank group; the group that the mice were injected with the sample to be tested was the experimental group; and the group that the mice were injected with lappaconitine was the positive group. The analgesic activity was represented by a percentage of the reduced number of writhing compared to the blank group (writhing inhibition rate), which were specifically as follows: writhing inhibition rate (analgesic activity)=(average number of writhing times in the blank group-average number of writhing times in the experimental group)/average number of writhing times in the blank group×100%.

SMILES | inhibition in vivo at 3.5 mg/kg [%]
CCN1C[C@]2(OC(=O)c3ccccc3NS(=O)(=O)c3cccc(OC)c3)CC[C@H](OC)[C@@]34C2CC([C@@H]13)[C@@]1(O)C[C@H](OC)[C@H]2CC4[C@]1(O)[C@H]2OC (stereo partly drawn) [Compound 13] | 37.1 ± 15.7
CCN1C[C@]2(OC(=O)c3ccccc3NS(=O)(=O)c3ccc(OC)cc3)CC[C@H](OC)[C@@]34C2CC([C@@H]13)[C@@]1(O)C[C@H](OC)[C@H]2CC4[C@]1(O)[C@H]2OC (stereo partly drawn) [Compound 20] | 16.8 ± 6.09
CCN1C[C@]2(OC(=O)c3ccccc3NS(=O)(=O)c3ccc(C)cc3)CC[C@H](OC)[C@@]34C2CC([C@@H]13)[C@@]1(O)C[C@H](OC)[C@H]2CC4[C@]1(O)[C@H]2OC (stereo partly drawn) [Compound 15] | 27.7 ± 12.9
CCN1C[C@]2(OC(=O)c3ccccc3NS(=O)(=O)c3ccc(F)cc3)CC[C@H](OC)C34C2CC([C@@H]13)[C@@]1(O)C[C@H](OC)[C@H]2CC4[C@]1(O)[C@H]2OC (stereo partly drawn) [Compound 23] | 14.7 ± 13.2

Same assay, conditions: Mus musculus, sc; Dosing concentration 5 mg/kg, subcutaneous, 15 min before i.p. 0.7% acetic acid; writhing inhibition vs blank group; read-out: Analgesia rate ± SEM (%)

SMILES | inhibition in vivo at 5 mg/kg [%]
CCN1C[C@]2(OC(=O)c3ccccc3NC(=O)C3CC3)CC[C@H](OC)C3C2C[C@@H]([C@@H]1C)[C@@]1(O)CC(OC)[C@H]2CC3[C@]1(O)[C@H]2OC (stereo partly drawn) [Compound 39] | 33.5 ± 7.27

Same assay, conditions: Mus musculus, sc; Dosing concentration 10 mg/kg, subcutaneous, 15 min before i.p. 0.7% acetic acid; writhing inhibition vs blank group; read-out: Analgesia rate ± SEM (%)

SMILES | inhibition in vivo at 10 mg/kg [%]
CCc1ccc(C(=O)Nc2ccccc2C(=O)O[C@@]23CC[C@H](OC)C4C2C[C@@H]([C@H](C)N(CC)C3)[C@@]2(O)CC(OC)[C@H]3CC4[C@]2(O)[C@H]3OC)cc1 (stereo partly drawn) [Compound 46] | 26.7 ± 7.95
CCN1C[C@]2(OC(=O)c3ccccc3NC(=O)C3CCCC3)CC[C@H](OC)C34C2CC([C@@H]13)[C@@]1(O)C[C@H](OC)[C@H]2CC4[C@]1(O)[C@H]2OC (stereo partly drawn) [Compound 33] | 56.9 ± 3.82
CCCCc1ccc(C(=O)Nc2ccccc2C(=O)O[C@@]23CC[C@H](OC)C4C2C[C@@H]([C@H](C)N(CC)C3)[C@@]2(O)CC(OC)[C@H]3CC4[C@]2(O)[C@H]3OC)cc1 (stereo partly drawn) [Compound 44] | 28.2 ± 7.88
CCN1C[C@]2(OC(=O)c3ccccc3NC(=O)c3ccc(Cl)s3)CC[C@H](OC)C3C2C[C@@H]([C@@H]1C)[C@@]1(O)CC(OC)[C@H]2CC3[C@]1(O)[C@H]2OC (stereo partly drawn) [Compound 45] | 27.8 ± 5.83
CCN1C[C@]2(OC(=O)c3ccccc3NC(=O)C3CCCCC3)CC[C@H](OC)C3C2C[C@@H]([C@@H]1C)[C@@]1(O)CC(OC)[C@H]2CC3[C@]1(O)[C@H]2OC (stereo partly drawn) [Compound 37] | 34.5 ± 4.68
CCN1C[C@]2(OC(=O)c3ccccc3NC(=O)C3CCOC3)CC[C@H](OC)C3C2C[C@@H]([C@@H]1C)[C@@]1(O)CC(OC)[C@H]2CC3[C@]1(O)[C@H]2OC (stereo partly drawn) [Compound 38] | 34 ± 8.92
CCN1C[C@]2(OC(=O)c3ccccc3NC(=O)CC(C)(C)C)CC[C@H](OC)C3C2C[C@@H]([C@@H]1C)[C@@]1(O)CC(OC)[C@H]2CC3[C@]1(O)[C@H]2OC (stereo partly drawn) [Compound 47] | 24.9 ± 9.7
CCN1C[C@]2(OC(=O)c3ccccc3NS(=O)(=O)c3ccc(Cl)cc3)CC[C@H](OC)C34C2CC([C@@H]13)[C@@]1(O)C[C@H](OC)[C@H]2CC4[C@]1(O)[C@H]2OC (stereo partly drawn) [Compound 25] | 11.7 ± 7.78
CCN1C[C@]2(OC(=O)c3ccccc3NS(=O)(=O)c3cccs3)CC[C@H](OC)C34C2CC([C@@H]13)[C@@]1(O)C[C@H](OC)[C@H]2CC4[C@]1(O)[C@H]2OC (stereo partly drawn) [Compound 29] | 1.03 ± 5.37
CCN1C[C@]2(OC(=O)c3ccccc3NS(=O)(=O)c3cccc4c(N(C)C)cccc34)CC[C@H](OC)[C@@]34C2CC([C@@H]13)[C@@]1(O)C[C@H](OC)[C@H]2CC4[C@]1(O)[C@H]2OC (stereo partly drawn) [Compound 10] | 42.5 ± 2.56
CCN1C[C@]2(OC(=O)c3ccccc3NS(=O)(=O)c3cccc4cccnc34)CC[C@H](OC)[C@@]34C2CC([C@@H]13)[C@@]1(O)C[C@H](OC)[C@H]2CC4[C@]1(O)[C@H]2OC (stereo partly drawn) [Compound 12] | 41.9 ± 3.8
CCN1C[C@]2(OC(=O)c3ccccc3NS(=O)(=O)c3ccc(-c4ccccc4)cc3)CC[C@H](OC)C34C2CC([C@@H]13)[C@@]1(O)C[C@H](OC)[C@H]2CC4[C@]1(O)[C@H]2OC (stereo partly drawn) [Compound 22] | 16.1 ± 10.6
CCN1C[C@]2(OC(=O)c3ccccc3NS(=O)(=O)c3ccc(Br)cc3)CC[C@H](OC)C34C2CC([C@@H]13)[C@@]1(O)C[C@H](OC)[C@H]2CC4[C@]1(O)[C@H]2OC (stereo partly drawn) [Compound 26] | 11.4 ± 7.58
CCOC(=O)Nc1ccccc1C(=O)O[C@@]12CC[C@H](OC)C34C1CC([C@H]3N(CC)C2)[C@@]1(O)C[C@H](OC)[C@H]2CC4[C@]1(O)[C@H]2OC (stereo partly drawn) [Compound 21] | 16.4 ± 11.5
CCCCCCC(=O)Nc1ccccc1C(=O)O[C@@]12CC[C@H](OC)C34C1CC([C@H]3N(CC)C2)[C@@]1(O)C[C@H](OC)[C@H]2CC4[C@]1(O)[C@H]2OC (stereo partly drawn) [Compound 34] | 54.2 ± 6.15
CCN1C[C@]2(OC(=O)c3ccccc3NC(=O)OC(C)C)CC[C@H](OC)[C@@]34C2CC([C@@H]13)[C@@]1(O)C[C@H](OC)[C@H]2CC4[C@]1(O)[C@H]2OC (stereo partly drawn) [Compound 14] | 28.4 ± 4.98

SMILES | inhibition in vivo at 10 mg/kg [%]
CCN1C[C@]2(OC(=O)c3ccccc3NS(=O)(=O)Cc3ccccc3)CC[C@H](OC)[C@@]34C2CC([C@@H]13)[C@@]1(O)C[C@H](OC)[C@H]2CC4[C@]1(O)[C@H]2OC (stereo partly drawn) [Compound 9] | 43.8 ± 4.5
C/C=C/S(=O)(=O)Nc1ccccc1C(=O)O[C@@]12CC[C@H](OC)[C@@]34C1CC([C@H]3N(CC)C2)[C@@]1(O)C[C@H](OC)[C@H]2CC4[C@]1(O)[C@H]2OC (stereo partly drawn) [Compound 16] | 24.4 ± 8.46
CCN1C[C@]2(OC(=O)c3ccccc3NS(=O)(=O)c3cccc4ccccc34)CC[C@H](OC)[C@@]34C2CC([C@@H]13)[C@@]1(O)C[C@H](OC)[C@H]2CC4[C@]1(O)[C@H]2OC (stereo partly drawn) [Compound 8] | 49.2 ± 5
CCN1C[C@]2(OC(=O)c3ccccc3NC(=O)c3ccc(I)cc3)CC[C@H](OC)C3C2C[C@@H]([C@@H]1C)[C@@]1(O)CC(OC)[C@H]2CC3[C@]1(O)[C@H]2OC (stereo partly drawn) [Compound 43] | 31.1 ± 8.56
CCN1C[C@]2(OC(=O)c3ccccc3NS(C)(=O)=O)CC[C@H](OC)[C@@]34C2CC([C@@H]13)[C@@]1(O)C[C@H](OC)[C@H]2CC4[C@]1(O)[C@H]2OC (stereo partly drawn) [Compound 17] | 22.8 ± 7.58
CCN1C[C@]2(OC(=O)c3ccccc3NS(=O)(=O)c3ccccc3F)CC[C@H](OC)[C@@]34C2CC([C@@H]13)[C@@]1(O)C[C@H](OC)[C@H]2CC4[C@]1(O)[C@H]2OC (stereo partly drawn) [Compound 6] | 60.3 ± 5.94
CCN1C[C@]2(OC(=O)c3ccccc3NS(=O)(=O)Oc3ccccc3)CC[C@H](OC)C34C2CC([C@@H]13)[C@@]1(O)C[C@H](OC)[C@H]2CC4[C@]1(O)[C@H]2OC (stereo partly drawn) [Compound 28] | 1.03 ± 10.3
CCN1C[C@]2(OC(=O)c3ccccc3NS(=O)(=O)CC)CC[C@H](OC)C34C2CC([C@@H]13)[C@@]1(O)C[C@H](OC)[C@H]2CC4[C@]1(O)[C@H]2OC (stereo partly drawn) [Compound 27] | 4.02 ± 9.5
CCN1C[C@]2(OC(=O)c3ccccc3NC(=O)C3CCCO3)CC[C@H](OC)C3C2C[C@@H]([C@@H]1C)[C@@]1(O)CC(OC)[C@H]2CC3[C@]1(O)[C@H]2OC (stereo partly drawn) [Compound 48] | 21.8 ± 12.6
CCN1C[C@]2(OC(=O)c3ccccc3NC(=O)c3ccc(C(=O)OC)cc3)CC[C@H](OC)C3C2C[C@@H]([C@@H]1C)[C@@]1(O)CC(OC)[C@H]2CC3[C@]1(O)[C@H]2OC (stereo partly drawn) [Compound 36] | 36.4 ± 9.54
CCN1C[C@]2(OC(=O)c3ccccc3NC(=O)c3ccc(Cl)cc3)CC[C@H](OC)C3C2C[C@@H]([C@@H]1C)[C@@]1(O)CC(OC)[C@H]2CC3[C@]1(O)[C@H]2OC (stereo partly drawn) [Compound 40] | 31.6 ± 12.6
CCN1C[C@]2(OC(=O)c3ccccc3NS(=O)(=O)Cc3ccc([N+](=O)[O-])cc3)CC[C@H](OC)[C@@]34C2CC([C@@H]13)[C@@]1(O)C[C@H](OC)[C@H]2CC4[C@]1(O)[C@H]2OC (stereo partly drawn) [Compound 11] | 42.4 ± 5.98
C=CCOC(=O)Nc1ccccc1C(=O)O[C@@]12CC[C@H](OC)C34C1CC([C@H]3N(CC)C2)[C@@]1(O)C[C@H](OC)[C@H]2CC4[C@]1(O)[C@H]2OC (stereo partly drawn) [Compound 24] | 13.3 ± 9
CCCOc1ccc(C(=O)Nc2ccccc2C(=O)O[C@@]23CC[C@H](OC)C45C2CC([C@H]4N(CC)C3)[C@@]2(O)C[C@H](OC)[C@H]3CC5[C@]2(O)[C@H]3OC)cc1 (stereo partly drawn) [Compound 35] | 48.4 ± 6.08
CCN1C[C@]2(OC(=O)c3ccccc3NC(=O)c3ccc(C(C)C)cc3)CC[C@H](OC)C3C2C[C@@H]([C@@H]1C)[C@@]1(O)CC(OC)[C@H]2CC3[C@]1(O)[C@H]2OC (stereo partly drawn) [Compound 49] | 21 ± 6.58
